Assay results reported in the NIST ThermoML archive (doi:10.1016/j.tca.2011.02.002).
± gives the expanded uncertainty stated by the source.

Assays:
[1] = excess molar enthalpy (molar enthalpy of mixing); xn = mol fraction of the nth substance listed; conditions: 308.15 K, 101 kPa, Liquid, 2-drop calorimeter (CSC 4600_
[2] = xn = mol fraction of the nth substance listed; conditions: 101 kPa, Liquid; for mass density: Vibrating tube method

Cc1ccncc1 [4-methylpyridine] + C1CCOCC1
[1]
Conditions | excess molar enthalpy [kcal/mol]
x2 = 0.0442 | 0.00296 ± 0.000263
x2 = 0.1216 | 0.0102 ± 0.000335
x2 = 0.1982 | 0.0182 ± 0.00043
x2 = 0.2416 | 0.0233 ± 0.000478
x2 = 0.2882 | 0.0282 ± 0.000526
x2 = 0.3401 | 0.0323 ± 0.000574
x2 = 0.3876 | 0.0366 ± 0.000598
x2 = 0.4371 | 0.0395 ± 0.000645
x2 = 0.4834 | 0.0416 ± 0.000645
x2 = 0.5256 | 0.0419 ± 0.000669
x2 = 0.5934 | 0.0413 ± 0.000645
x2 = 0.6433 | 0.039 ± 0.000621
x2 = 0.6925 | 0.0359 ± 0.000598
x2 = 0.7367 | 0.0316 ± 0.00055
x2 = 0.7952 | 0.0256 ± 0.000502
x2 = 0.8262 | 0.0227 ± 0.000478
x2 = 0.8842 | 0.015 ± 0.000382
x2 = 0.9406 | 0.00777 ± 0.000311

[2]
Conditions | mass density, 298.15 K [kg/m3] | mass density, 303.15 K [kg/m3] | mass density, 308.15 K [kg/m3] | speed of sound, 298.15 K [m/s] | speed of sound, 303.15 K [m/s] | speed of sound, 308.15 K [m/s]
x2 = 0 | 950.179 ± 0.3 | 945.413 ± 0.3 | 940.821 ± 0.3 | 1431.5 ± 1 | 1410.7 ± 1 | 1389.9 ± 1
x2 = 0.0521 | 946.678 ± 0.32 | 941.884 ± 0.32 | 936.955 ± 0.32 | 1422.7 ± 1.1 | 1402.2 ± 1.1 | 1380.6 ± 1.1
x2 = 0.0832 | 944.577 ± 0.34 | 939.773 ± 0.34 | 935.004 ± 0.34 | 1417.5 ± 1.1 | 1397.2 ± 1.1 | 1376.2 ± 1.1
x2 = 0.1426 | 940.548 ± 0.37 | 935.733 ± 0.36 | 931.541 ± 0.36 | 1407.8 ± 1.1 | 1387.6 ± 1.1 | 1368.4 ± 1.1
x2 = 0.1882 | 937.434 ± 0.39 | 932.615 ± 0.39 | 928.307 ± 0.39 | 1400.5 ± 1.2 | 1380.3 ± 1.2 | 1360.8 ± 1.2
x2 = 0.2536 | 932.939 ± 0.42 | 928.121 ± 0.42 | 923.922 ± 0.42 | 1390.1 ± 1.3 | 1369.7 ± 1.3 | 1350.5 ± 1.3
x2 = 0.2902 | 930.406 ± 0.45 | 925.591 ± 0.44 | 921.331 ± 0.44 | 1384.3 ± 1.3 | 1363.8 ± 1.3 | 1344.4 ± 1.3
x2 = 0.3415 | 926.841 ± 0.47 | 922.019 ± 0.47 | 917.744 ± 0.47 | 1376.1 ± 1.4 | 1355.3 ± 1.4 | 1336 ± 1.4
x2 = 0.3782 | 924.275 ± 0.5 | 919.451 ± 0.49 | 914.432 ± 0.49 | 1370.3 ± 1.4 | 1349.3 ± 1.4 | 1328 ± 1.4
x2 = 0.4323 | 920.471 ± 0.53 | 915.637 ± 0.53 | 911.254 ± 0.52 | 1361.6 ± 1.4 | 1340.5 ± 1.4 | 1320.8 ± 1.4
x2 = 0.4913 | 916.295 ± 0.56 | 911.443 ± 0.56 | 907.207 ± 0.56 | 1352.1 ± 1.5 | 1330.7 ± 1.5 | 1311.3 ± 1.5
x2 = 0.5437 | 912.559 ± 0.6 | 907.692 ± 0.59 | 903.227 ± 0.59 | 1343.6 ± 1.6 | 1322 ± 1.6 | 1302.1 ± 1.6
x2 = 0.5991 | 908.587 ± 0.63 | 903.687 ± 0.63 | 899.247 ± 0.63 | 1334.5 ± 1.6 | 1312.8 ± 1.6 | 1292.8 ± 1.6
x2 = 0.6427 | 905.441 ± 0.66 | 900.515 ± 0.66 | 895.885 ± 0.65 | 1327.3 ± 1.6 | 1305.5 ± 1.6 | 1285.2 ± 1.6
x2 = 0.7015 | 901.173 ± 0.7 | 896.211 ± 0.69 | 891.453 ± 0.69 | 1317.7 ± 1.7 | 1295.7 ± 1.7 | 1275 ± 1.7
x2 = 0.7822 | 895.277 ± 0.75 | 890.253 ± 0.75 | 887.03 ± 0.74 | 1304.4 ± 1.8 | 1282.3 ± 1.8 | 1264.5 ± 1.8
x2 = 0.8263 | 892.032 ± 0.78 | 886.976 ± 0.78 | 882.795 ± 0.77 | 1297.2 ± 1.8 | 1275 ± 1.8 | 1255.2 ± 1.8
x2 = 0.8846 | 887.726 ± 0.82 | 882.631 ± 0.82 | 877.665 ± 0.81 | 1287.9 ± 1.9 | 1265.5 ± 1.9 | 1243.9 ± 1.9
x2 = 0.9435 | 883.352 ± 0.87 | 878.225 ± 0.86 | 873.901 ± 0.85 | 1278.6 ± 1.9 | 1255.9 ± 1.9 | 1235.3 ± 1.9

c1ccncc1 [pyridine] + C1CCOCC1
[1]
Conditions | excess molar enthalpy [kcal/mol]
x2 = 0.0552 | 0.00315 ± 0.000263
x2 = 0.1006 | 0.00626 ± 0.000311
x2 = 0.1525 | 0.0101 ± 0.000335
x2 = 0.2014 | 0.0141 ± 0.000382
x2 = 0.2915 | 0.0215 ± 0.000454
x2 = 0.3462 | 0.0254 ± 0.000502
x2 = 0.3871 | 0.029 ± 0.000526
x2 = 0.4217 | 0.0314 ± 0.00055
x2 = 0.4853 | 0.0347 ± 0.000598
x2 = 0.5363 | 0.0376 ± 0.000621
x2 = 0.5802 | 0.0387 ± 0.000621
x2 = 0.6461 | 0.039 ± 0.000621
x2 = 0.6864 | 0.0391 ± 0.000621
x2 = 0.7344 | 0.0374 ± 0.000621
x2 = 0.7856 | 0.0341 ± 0.000574
x2 = 0.8315 | 0.0298 ± 0.00055
x2 = 0.8911 | 0.0219 ± 0.000454
x2 = 0.9347 | 0.0139 ± 0.000382

[2]
Conditions | mass density, 298.15 K [kg/m3] | mass density, 303.15 K [kg/m3] | mass density, 308.15 K [kg/m3] | speed of sound, 298.15 K [m/s] | speed of sound, 303.15 K [m/s] | speed of sound, 308.15 K [m/s]
x2 = 0 | 978.249 ± 0.3 | 973.224 ± 0.3 | 968.166 ± 0.3 | 1417.6 ± 1.1 | 1397.4 ± 1.1 | 1377.1 ± 1.1
x2 = 0.0427 | 973.663 ± 0.32 | 968.634 ± 0.32 | 963.658 ± 0.32 | 1411.9 ± 1.1 | 1391.4 ± 1.1 | 1370.9 ± 1.1
x2 = 0.1021 | 967.309 ± 0.35 | 962.276 ± 0.35 | 957.232 ± 0.35 | 1403.6 ± 1.2 | 1382.9 ± 1.2 | 1362.3 ± 1.2
x2 = 0.1883 | 958.157 ± 0.39 | 953.12 ± 0.39 | 948.063 ± 0.39 | 1391.4 ± 1.3 | 1370.2 ± 1.3 | 1349.4 ± 1.3
x2 = 0.2415 | 952.565 ± 0.42 | 947.532 ± 0.42 | 942.634 ± 0.42 | 1383.7 ± 1.3 | 1362.2 ± 1.3 | 1341.1 ± 1.3
x2 = 0.2853 | 948.002 ± 0.45 | 942.969 ± 0.45 | 938.037 ± 0.45 | 1377.4 ± 1.4 | 1355.6 ± 1.4 | 1334.3 ± 1.4
x2 = 0.3438 | 941.972 ± 0.48 | 936.936 ± 0.48 | 931.957 ± 0.48 | 1368.8 ± 1.4 | 1346.7 ± 1.4 | 1325.4 ± 1.4
x2 = 0.3742 | 938.871 ± 0.5 | 933.829 ± 0.5 | 928.814 ± 0.5 | 1364.2 ± 1.4 | 1342.1 ± 1.4 | 1320.6 ± 1.4
x2 = 0.4263 | 933.597 ± 0.53 | 928.553 ± 0.53 | 923.491 ± 0.53 | 1356.5 ± 1.5 | 1334 ± 1.5 | 1312.5 ± 1.5
x2 = 0.4642 | 929.793 ± 0.56 | 924.748 ± 0.55 | 919.649 ± 0.55 | 1350.7 ± 1.5 | 1328.2 ± 1.5 | 1306.7 ± 1.5
x2 = 0.5364 | 922.65 ± 0.6 | 917.601 ± 0.6 | 912.425 ± 0.59 | 1339.8 ± 1.6 | 1317.1 ± 1.6 | 1295.4 ± 1.6
x2 = 0.5721 | 919.167 ± 0.62 | 914.108 ± 0.62 | 908.895 ± 0.61 | 1334.4 ± 1.6 | 1311.6 ± 1.6 | 1289.8 ± 1.6
x2 = 0.6283 | 913.73 ± 0.66 | 908.661 ± 0.65 | 903.408 ± 0.65 | 1325.8 ± 1.7 | 1302.9 ± 1.7 | 1281.1 ± 1.7
x2 = 0.6872 | 908.097 ± 0.69 | 903.027 ± 0.69 | 897.739 ± 0.69 | 1316.9 ± 1.8 | 1293.9 ± 1.8 | 1271.9 ± 1.7
x2 = 0.7336 | 903.711 ± 0.72 | 898.628 ± 0.72 | 893.335 ± 0.72 | 1309.8 ± 1.8 | 1286.9 ± 1.8 | 1264.7 ± 1.8
x2 = 0.7823 | 899.149 ± 0.76 | 894.056 ± 0.75 | 888.752 ± 0.75 | 1302.5 ± 1.8 | 1279.5 ± 1.8 | 1257.3 ± 1.8
x2 = 0.8351 | 894.248 ± 0.79 | 889.143 ± 0.79 | 883.845 ± 0.78 | 1294.4 ± 1.9 | 1271.5 ± 1.9 | 1249.2 ± 1.9
x2 = 0.8752 | 890.543 ± 0.82 | 885.431 ± 0.81 | 880.16 ± 0.81 | 1288.5 ± 1.9 | 1265.4 ± 1.9 | 1243.1 ± 1.9
x2 = 0.9354 | 885.027 ± 0.86 | 879.898 ± 0.85 | 874.668 ± 0.85 | 1279.5 ± 2 | 1256.4 ± 2 | 1234.1 ± 2
